From US20090137577A1, “HETEROCYCLIC COMPOUNDS” (Pfizer Inc., priority 2007, published 2009)
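Note: HEK cells stably expressing human mGluR2 with GL15 G protein, Fluo-4 calcium fluorescence read on FLIPR, compounds added before an EC10-EC20 glutamate challenge to detect potentiation.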

These molecules were tested against T1, mGluR2 receptor (metabotropic glutamate receptor 2) (Homo sapiens, UniProt Q14416) (assay: mGluR2 potentiator screen (FLIPR, EC10-EC20 glutamate challenge)). Details: geometric mean; read-out: mGluR 2 EC50 (geometric mean).
T1 construct: expressed in transfected cells
T1 sequence (Q14416 19-872, species assumed): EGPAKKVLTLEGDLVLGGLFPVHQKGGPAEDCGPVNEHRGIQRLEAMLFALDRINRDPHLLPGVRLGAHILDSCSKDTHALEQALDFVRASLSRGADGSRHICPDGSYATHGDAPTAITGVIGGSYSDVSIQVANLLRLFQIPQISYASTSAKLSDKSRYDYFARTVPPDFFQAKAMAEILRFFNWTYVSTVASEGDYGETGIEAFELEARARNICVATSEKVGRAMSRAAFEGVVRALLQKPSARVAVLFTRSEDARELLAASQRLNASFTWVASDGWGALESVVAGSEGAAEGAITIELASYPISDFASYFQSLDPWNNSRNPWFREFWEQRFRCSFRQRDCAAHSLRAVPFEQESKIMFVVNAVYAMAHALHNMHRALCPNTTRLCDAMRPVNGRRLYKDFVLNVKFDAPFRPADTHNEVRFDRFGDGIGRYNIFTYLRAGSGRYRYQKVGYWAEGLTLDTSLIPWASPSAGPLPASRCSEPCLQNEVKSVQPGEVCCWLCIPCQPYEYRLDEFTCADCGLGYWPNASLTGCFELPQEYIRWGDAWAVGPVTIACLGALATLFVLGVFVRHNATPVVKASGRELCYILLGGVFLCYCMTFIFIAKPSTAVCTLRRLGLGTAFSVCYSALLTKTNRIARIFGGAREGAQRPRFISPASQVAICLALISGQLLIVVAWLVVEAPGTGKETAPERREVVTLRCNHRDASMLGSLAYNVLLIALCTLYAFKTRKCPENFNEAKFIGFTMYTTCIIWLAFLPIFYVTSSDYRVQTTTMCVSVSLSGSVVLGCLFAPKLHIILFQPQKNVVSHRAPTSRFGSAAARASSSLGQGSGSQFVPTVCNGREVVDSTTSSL
Format: cell-based
Work on `Cc1cc(CN2CC(c3cccnc3)OC2=O)ccc1OCC1CCCCC1` (centres unmarked) [Example 250, 3-[4-(Cyclohexylmethoxy)-3-methylbenzyl]-5-pyridin-3-yl-1,3-oxazolidin-2-one] yielded an EC50 of 1870 nM.
`CC(C)Oc1ccc(-c2ccc(CN3C[C@@H](C)OC3=O)cc2)c(Cl)c1` [Example 280] was tested, and the EC50 was < 15.4 nM.
Molecule `COc1cc(F)ccc1COc1ccc(CN2CC(C)OC2=O)cc1` (centres unmarked) [Example 147] has an EC50 of 118 nM.
`CC(Oc1ccc(CN2CC(C)(C)COC2=O)cc1)c1ccccc1` (centres unmarked) [Example 45] showed an EC50 of 213 nM.
For `C[C@@H]1CN(Cc2ccc(-c3ccc(Cl)cc3Cl)cc2)C(=O)O1` [Example 273], the EC50 was < 40.1 nM.
`C[C@@H]1CN(Cc2ccc(-c3ccc(C(F)(F)F)cc3Cl)cc2)C(=O)O1` [Example 272] gave an EC50 of 20.1 nM.
In the case of `C[C@@H]1CN(Cc2ccc(OCC3CCCCC3)c(F)c2)C(=O)O1` [Example 227, (5R)-3-[4-(cyclohexylmethoxy)-3-fluorobenzyl]-5-methyl-1,3-oxazolidin-2-one], the EC50 is reported as 196 nM.
`C[C@@H]1CN(Cc2ccc(-c3ccc(Cl)c(Cl)c3)cc2)C(=O)O1` [Example 182] showed an EC50 of 74.6 nM.
In the case of `C[C@H]1[C@@H](c2ccccc2)OC(=O)N1Cc1ccc(OCCC2CCCCC2)cc1` [Example 30], the EC50 is reported as 987 nM.
With `C[C@@H]1CN(Cc2ccc(-c3ccc(C(F)(F)F)cc3C(F)(F)F)cc2)C(=O)O1` [Example 275] the EC50 was 47.4 nM.
`CC1CN(Cc2ccc(OCc3ccc(F)c(F)c3)cc2)C(=O)O1` (centres unmarked) [Example 137] gave an EC50 of 310 nM.
With `Cc1cc(CN2C[C@@H](C)OC2=O)ccc1-c1ccc(F)cc1F` [Example 299, (5R)-3-[(2′,4′-Difluoro-2-methylbiphenyl-4-yl)methyl]-5-methyl-1,3-oxazolidin-2-one] the EC50 was 167 nM.
For `O=C1OC[C@@H]2CCCC[C@@H]2N1Cc1ccc(OC2CCCCC2)cc1` [Example 41], the EC50 was 386 nM.
With `C[C@@H]1CN(Cc2ccc(-c3ccc(Cl)c(F)c3)cc2)C(=O)O1` [Example 237] the EC50 was 112 nM.
Molecule `CC1CN(Cc2ccc(OCCCn3ccc4ccccc43)cc2)C(=O)O1` (centres unmarked) [Example 149] has an EC50 of 35.8 nM.
For `C[C@@H]1CN(Cc2ccc(-c3ccc(C(F)(F)F)cc3F)nc2)C(=O)O1` [Example 258], the EC50 was 205 nM.
In the case of `COc1ccc(F)c(F)c1-c1ccc(CN2C[C@@H](C)OC2=O)cc1` [Example 243], the EC50 is reported as < 25.3 nM.
With `CN(C)CC1CN(Cc2ccc(-c3ccc(F)cc3F)cc2)C(=O)O1` (centres unmarked) [Example 307, 3-[(2′,4′-difluorobiphenyl-4-yl)methyl]-5-[(dimethylamino)methyl]-1,3-oxazolidin-2-one] the EC50 was 1360 nM.
`CC(Oc1ccc(CN2CCN(C3CC[C@@H](C)C3)CC2=O)cc1)C1CCCCC1` (some centres unmarked) [Example 224] gave an EC50 of 1100 nM.
`O=C1OC(c2ccccc2)CN1Cc1ccc(OCC2CCC2)cc1` (centres unmarked) [Example 9] was tested, and the EC50 was 135 nM.
`C[C@@H]1CN(Cc2ccc(-c3cccc(F)c3F)c(F)c2)C(=O)O1` [Example 289] showed an EC50 of 93.7 nM.
In the case of `COc1ccc(F)cc1-c1ccc(CN2C[C@@H](C)OC2=O)cn1` [Example 267], the EC50 is reported as 1160 nM.
In the case of `CC(C)Oc1ccc(-c2ccc(CN3C[C@@H](C)OC3=O)cc2)cc1F` [Example 277], the EC50 is reported as 53.1 nM.
With `COc1cc(COc2ccc(CN3CC(C)OC3=O)cc2)ccc1C` (centres unmarked) [Example 146] the EC50 was 1110 nM.
`CC(C)COc1ccc(CN2C(=O)O[C@H](c3ccccc3)[C@@H]2C)cc1` [Example 26] was tested, and the EC50 was 542 nM.
`O=C1OCCCN1Cc1ccc(OCC2CCC2)cc1` [Example 28] showed an EC50 of 1240 nM.
`Cc1nc(-c2ccccc2)ncc1COc1ccc(CN2CC(C)OC2=O)cc1` (centres unmarked) [Example 133] showed an EC50 of 120 nM.
With `O=C1OC(c2ccccc2)CN1Cc1ccc(OCc2ccccn2)cc1` (centres unmarked) [Example 5] the EC50 was 1280 nM.
For `C[C@@H]1CN(Cc2ccc(-c3ccc(C(F)(F)F)cc3C(F)(F)F)nc2)C(=O)O1` [Example 276], the EC50 was 788 nM.
`C[C@@H]1CN(Cc2ccc(/C=C/c3ccccc3)cc2)C(=O)O1` [Example 317, (5R)-5-methyl-3-{4-[(E)-2-phenylvinyl]benzyl}-1,3-oxazolidin-2-one] showed an EC50 of 36.4 nM.
With `CC(C)COc1ccc(CN2C(=O)OC[C@H]3CCCC[C@H]32)cc1` [Example 2] the EC50 was 637 nM.
`CC1CN(Cc2ccc(OCc3cccc(Cl)c3)cc2)C(=O)O1` (centres unmarked) [Example 108] showed an EC50 of 91.2 nM.
In the case of `C[C@@H]1CN(Cc2ccc(-c3cc4ccccc4o3)cc2)C(=O)O1` [Example 157], the EC50 is reported as < 32.5 nM.
For `CC1CN(Cc2ccc(OCc3ccc(F)cc3)cc2)C(=O)O1` (centres unmarked) [Example 110], the EC50 was 243 nM.
With `C[C@@H]1CN(Cc2ccc(-c3ccc(Cl)cc3F)nc2)C(=O)O1` [Example 210, (5R)-3-{[6-(4-Chloro-2-fluorophenyl)pyridin-3-yl]methyl}-5-methyl-1,3-oxazolidin-2-one] the EC50 was 424 nM.
Molecule `C[C@@H]1CN(Cc2ccc(-c3ccc(OC(F)F)cc3)nc2)C(=O)O1` [Example 313] has an EC50 of 531 nM.
`CCCOc1ccc(CN2C(=O)O[C@H](c3ccccc3)[C@@H]2C)cc1` [Example 23] gave an EC50 of 887 nM.
For `C[C@@H]1CN(Cc2ccc(OCCC3CCCCC3)c(F)c2)C(=O)O1` [Example 241, (5R)-3-[4-(2-cyclohexylethoxy)-3-fluorobenzyl]-5-methyl-1,3-oxazolidin-2-one], the EC50 was 418 nM.
`COc1cc(COc2ccc(CN3CC(C)OC3=O)cc2)cc(OC)c1` (centres unmarked) [Example 113] was tested, and the EC50 was 244 nM.
`COc1ccc(-c2ccc(CN3C[C@@H](C)OC3=O)cc2F)c(F)c1F` [Example 293] was tested, and the EC50 was < 59.9 nM.
`C[C@H]1CN(Cc2ccc(-c3ccc(C(F)(F)F)cc3)cc2)C(=O)O1` [Example 63, (5S)-5-methyl-3-{[4′-(trifluoromethyl)biphenyl-4-yl]methyl}-1,3-oxazolidin-2-one] showed an EC50 of 141 nM.
Work on `C[C@@H]1CN(Cc2ccc(-c3cnc4ccccc4c3)c(F)c2)C(=O)O1` [Example 294] yielded an EC50 of 327 nM.
In the case of `CC1CN(Cc2ccc(OCc3cc(F)cc(F)c3)cc2)C(=O)O1` (centres unmarked) [Example 91], the EC50 is reported as 152 nM.
`C[C@@H]1CN(Cc2ccc(-c3ccc(C(F)(F)F)cc3F)c(F)c2)C(=O)O1` [Example 292] gave an EC50 of 56 nM.
`O=C1OC(c2cccnc2)CN1Cc1ccc(-c2ccc(F)cc2F)cc1` (centres unmarked) [Example 302, 3-[(2′,4′-Difluorobiphenyl-4-yl)methyl]-5-pyridin-3-yl-1,3-oxazolidin-2-one] was tested, and the EC50 was 78.9 nM.
Work on `CC1CN(Cc2ccc(OCc3ccc(F)cc3Cl)cc2)C(=O)O1` (centres unmarked) [Example 115] yielded an EC50 of 71.8 nM.
Work on `C[C@@H]1CN(Cc2ccc(-c3ccc(C(F)(F)F)cc3)nc2)C(=O)O1` [Example 265] yielded an EC50 of 1100 nM.
`C[C@@H]1CN(Cc2ccc(-c3cccc(F)c3F)cc2)C(=O)O1` [Example 244] showed an EC50 of 97.2 nM.
Work on `C[C@@H]1CN(Cc2ccc(-c3cnc4ccccc4c3)cc2)C(=O)O1` [Example 181] yielded an EC50 of 286 nM.
With `COc1cc(COc2ccc(CN3CC(C)OC3=O)cc2)ccc1F` (centres unmarked) [Example 127] the EC50 was 1680 nM.
Work on `CC(C)CCN1CCN(Cc2ccc(OC(C)C3CCCCC3)cc2)C(=O)C1` (centres unmarked) [Example 220] yielded an EC50 of 801 nM.
`CC(Oc1ccc(CN2CC(c3ccccc3)OC2=O)cc1)C1CCCCC1` (centres unmarked) [Example 38] showed an EC50 of 127 nM.
Molecule `CC1(C)COC(=O)N(Cc2ccc(OCc3ccccc3)cc2)C1` [Example 21] has an EC50 of 819 nM.
With `O=C1OC[C@@H]2CCCC[C@@H]2N1Cc1ccc(OCc2ccccc2)cc1` [Example 4] the EC50 was 647 nM.
Work on `CCOC(=O)c1cccc(-c2ccc(CN3C[C@@H](C)OC3=O)cc2)c1` [Example 169] yielded an EC50 of 49 nM.
In the case of `CCCC(C)CN1CCN(Cc2ccc(OC(C)C3CCCCC3)cc2)C(=O)C1` (centres unmarked) [Example 214], the EC50 is reported as 712 nM.
